Converted amounts (≈) assume the structure as drawn. Marks after values point to notes of the source that are not given here.
Columns and labels:
[1] = Nonparticulate PBPK modeling of SNX-2112 disposition in rats; type: in vivo; conditions: estimated by nonparticulate PBPK modeling
[2] = after oral administration; cited from earlier work
[3] = Solubility of SNX-2112 in water and oil; type: physicochemical

For `CC1(C)CC(=O)c2c(C(F)(F)F)nn(-c3ccc(C(N)=O)c(N[C@H]4CC[C@H](O)CC4)c3)c2C1` [SNX-2112], the “CLH (hepatic clearance)” value [1] is listed as 0.0246 ^a L/h, the oral bioavailability [2] is listed as “hardly bioavailable” and the solubility ([3]; soybean oil, oil or lipid) is listed as 5 µg/mL (≈ 10.8 µM). For the same compound, the solubility ([3]; water) was 8 µg/mL (≈ 17.2 µM).

Source: article PMC4386773 (International Journal of Nanomedicine, 2015)
